Reference: publication PMC9645344, “Serotonin-releasing agents with reduced off-target effects” (Molecular Psychiatry, 2022)

How the values were obtained:
[1] = system: C57BL/6N mice; assay: Open-field test; type: in vivo; conditions: indicated doses (1, 5 and 10 mg kg-1) intraperitoneal, 1 h
Protocol: (§1) All in vivo experiments were performed in adult mice (>6 weeks old). For the photometry and microdialysis experiments, which were carried out in Florida, male C57BL/6J mice from The Jackson Laboratory (Bar Harbor, ME, USA) were group-housed in polycarbonate cages (GM500, Tecniplast, Buguggiate, Italy) with lights on from 7 a.m. to 7 p.m. Food and water were provided ad libitum. Photometry and microdialysis experiments were performed in accordance with a protocol approved by the Institutional Animal Care and Use Committee at Florida Atlantic University. For the behavioral experiments, which were carried out in Vienna, C57BL/6N mice from Charles River (Sulzfeld, Germany) were group-housed in polycarbonate cages with lights on from 7 a.m. to 7 p.m. Food and water were provided ad libitum. Behavioral experiments were performed in accordance with a protocol approved by the Austrian national ethical committee on animal care and use (Bundesministerium für Wissenschaft und Forschung: BMWFW-66.009/0016-WF/V/3b/2015). All animal procedures were conducted in agreement with the ARRIVE guidelines and the U.K. Animal (Scientific Procedures) Act, 1986, and associated guidelines, EU Directive 2010/63/EU for animal experiments. Mice were given at least 1 week to acclimate before being used in any experiments.
(§2) For behavioral assays, animals were assigned to treatment groups and injected with test drugs by an unblinded observer.
Mice were placed into an open field arena (27.3 × 27.3 × 27.3 cm) surrounded by infrared beams to track movements. The total distance traveled over 1 h was recorded using Activity Monitor (Med Associates Inc., St. Albans, VT, USA) and interpreted as a measure of the psychostimulant effects. Animal sample size was confirmed using a post hoc analysis of the achieved power using G*Power3.1 [29]. Using a significance level (α) of 0.05 and an effect size f = 1.92 and a sample size of 7.5 animals (5–10)/group we achieved the commonly accepted statistical power (1−β) of 0.8.

[2] = target: T1, human SERT (Homo sapiens, UniProt P31645); assay: SERT uptake inhibition assay in HEK293 cells ([3H]5-HT); type: cell-based
T1 construct: expressed in transfected cells
Protocol: (§3) Human embryonic kidney 293 (HEK293) cells stably expressing the human isoforms of either DAT or SERT were maintained in Dulbecco’s Modified Eagle Medium (DMEM), supplemented with 10% fetal calf serum at a subconfluent state in humidified atmosphere (5% CO2, 37 °C).
(§4) Uptake inhibition assays were performed as described earlier. Briefly, HEK293 cells stably expressing human SERT or DAT were seeded onto poly- D-lysine (PDL) coated 96-well plates (40,000 cells well^−1) the day before an experiment. Prior to the uptake inhibition assay, DMEM was replaced with Krebs-HEPES buffer (KHB, 25 mM HEPES, 120 mM NaCl, 5 mM KCl, 1.2 mM CaCl2, 1.2 mM MgSO4, and 5 mM D-glucose, pH 7.3) and the cells were preincubated with test drugs for 5 min at room temperature. Uptake assays were initiated by adding 20 nM [^3H]MPP^+ to DAT cells or 100 nM [^3H]5-HT to SERT cells. After 180 s (DAT) or 60 s (SERT), the tritiated substrate was removed by aspiration. Cells were washed once with ice-cold KHB, then lysed in 1% sodium dodecyl sulfate (SDS) and subjected to liquid scintillation counting to quantify tritium accumulated in each sample. Non-specific uptake was determined in the presence of mazindol (1 µM) for DAT or paroxetine (1 µM) for SERT and subtracted throughout.

[3] = target: T2, human DAT (Homo sapiens, UniProt Q01959); assay: DAT uptake inhibition assay in HEK293 cells ([3H]MPP+); type: cell-based; conditions: for DAT/SERT ratio: (1/DAT IC50)/(1/SERT IC50), higher values indicate higher DAT-selectivity
T2 construct: expressed in transfected cells
Protocol: as §3, §4

[4] = system: C57BL/6N mice; assay: Forced-swim test (FST); type: in vivo; conditions: for immobility time in the FST versus vehicle: mice
Protocol: as §1, §2
The FST was performed as previously described. In brief, mice were placed for 6 min in a beaker (diameter: 19 cm, height: 23 cm), halfway filled with water (22–23 °C), and the immobility time was quantified using the software Videotrack (Viewpoint, Champagne au Mont d’Or, France). Immobility was defined as the absence of any movement, except for those required to keep the head above the water. The time spent immobile during the final 4 min of the test was used as a measure of behavioral despair. Animal sample size was confirmed using a post hoc analysis of the achieved power using G*Power3.1 [29]. Using a significance level (α) of 0.05 and an effect size f = 2.5 and a sample size of 6 animals/group we achieved the commonly accepted statistical power (1−β) of 0.8.

T2 sequence (Q01959 whole entry): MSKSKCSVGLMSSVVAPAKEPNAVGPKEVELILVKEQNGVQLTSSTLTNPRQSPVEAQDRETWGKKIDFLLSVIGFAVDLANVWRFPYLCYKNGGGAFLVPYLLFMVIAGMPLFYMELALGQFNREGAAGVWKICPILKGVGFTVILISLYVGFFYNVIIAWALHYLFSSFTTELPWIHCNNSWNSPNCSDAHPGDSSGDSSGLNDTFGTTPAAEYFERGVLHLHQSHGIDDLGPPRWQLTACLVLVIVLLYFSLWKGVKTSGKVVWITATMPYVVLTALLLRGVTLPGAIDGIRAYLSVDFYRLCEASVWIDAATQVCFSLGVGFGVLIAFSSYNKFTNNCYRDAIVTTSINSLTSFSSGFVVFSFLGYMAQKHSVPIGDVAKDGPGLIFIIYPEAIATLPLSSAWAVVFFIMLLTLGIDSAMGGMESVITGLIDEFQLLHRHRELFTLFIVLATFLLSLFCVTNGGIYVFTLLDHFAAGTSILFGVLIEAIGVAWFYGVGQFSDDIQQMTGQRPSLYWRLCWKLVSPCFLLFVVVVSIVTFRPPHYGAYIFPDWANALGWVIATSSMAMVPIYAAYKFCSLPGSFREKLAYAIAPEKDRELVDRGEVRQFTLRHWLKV
T1 sequence (P31645 whole entry): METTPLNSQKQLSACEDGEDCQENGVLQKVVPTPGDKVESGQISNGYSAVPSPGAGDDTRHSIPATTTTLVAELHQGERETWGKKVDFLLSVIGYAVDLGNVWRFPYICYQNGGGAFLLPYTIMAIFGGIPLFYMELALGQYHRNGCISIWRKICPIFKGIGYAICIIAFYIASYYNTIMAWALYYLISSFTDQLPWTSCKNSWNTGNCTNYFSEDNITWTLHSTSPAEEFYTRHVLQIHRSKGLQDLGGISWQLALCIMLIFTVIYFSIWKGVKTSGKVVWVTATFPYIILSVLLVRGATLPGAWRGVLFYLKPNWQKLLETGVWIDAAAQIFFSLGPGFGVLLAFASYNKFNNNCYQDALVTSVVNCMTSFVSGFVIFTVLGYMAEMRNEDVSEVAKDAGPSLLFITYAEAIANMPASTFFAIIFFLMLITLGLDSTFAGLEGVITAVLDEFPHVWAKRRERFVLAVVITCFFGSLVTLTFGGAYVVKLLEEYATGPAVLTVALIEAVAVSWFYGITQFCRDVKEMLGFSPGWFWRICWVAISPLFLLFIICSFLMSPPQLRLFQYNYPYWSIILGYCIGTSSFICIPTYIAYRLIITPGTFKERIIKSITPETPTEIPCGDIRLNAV

CN[C@@H](C)C(=O)c1ccc(C(F)(F)F)cc1 [S-4-TFMMC, 4-trifluoromethyl-N-methylcathinone]
horizontal locomotor activity (total distance traveled) in the open field test [1]: did not differ from vehicle | IC50 [2]: 10.2 µM | IC50 [3]: 190 µM | DAT/SERT ratio [3]: 0.05 | time spent immobile in the FST, male and female mice ([4]; 10 mg kg-1 intraperitoneal): significantly reduced the time spent immobile regardless of sex | immobility time in the FST versus vehicle ([4]; 10 mg kg-1 intraperitoneal): significantly differed from the vehicle group

Cc1ccc(C(=O)[C@H](C)N)cc1 [S-4-MC, 4-methylcathinone]
horizontal locomotor activity (total distance traveled) in the open field test [1]: did not differ from vehicle | IC50 [2]: 12.6 µM | IC50 [3]: 6.65 µM | DAT/SERT ratio [3]: 1.9 | immobility time in the FST versus vehicle ([4]; 1 mg kg-1 intraperitoneal): significantly reduced immobility time versus vehicle | time spent immobile in the FST, male and female mice ([4]; 5 mg kg-1 intraperitoneal): significantly reduced the time spent immobile regardless of sex | immobility time in the FST versus vehicle ([4]; 5 mg kg-1 intraperitoneal): significantly reduced immobility time versus vehicle | immobility time in the FST versus vehicle ([4]; 10 mg kg-1 intraperitoneal): significantly reduced immobility time versus vehicle
